Tests used:
Test in all cases: relative viability (nuclei count vs DMSO), 5 days (fraction); higher = more cells survive
[1] = compound: CCC1=CN=CN=C1N2CCN(CC2)CC3=NC4=C(N3)C=C(C=C4)C(F)(F)F + CC(=O)c1c(C)c2cnc(Nc3ccc(N4CCNCC4)cn3)nc2n(C2CCCC2)c1=O [Palbociclib] (partner 0.5 µM)
Outline: (§1)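 Medians of duplicate plates are given as relative viability. That measure is the nuclei count in treated wells divided by the count in vehicle wells. Counts were taken on 4× images of lung cancer cell lines in 1536-well plates, 5 days after pin-tool dosing the day after seeding with one drug alone or a fixed anchor-drug dose plus five library-drug doses (not always all listed) in √10 steps.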

[2] = compound: CCn1c(-c2nonc2N)nc2cnc(Oc3cccc(NC(=O)c4ccc(OCCN5CCOCC5)cc4)c3)cc21 + O=C(CCCCCCC(=O)Nc1ccccc1)NO [Vorinostat] (partner 1 µM)
Outline: as §1

[3] = compound: CCC1=CN=CN=C1N2CCN(CC2)CC3=NC4=C(N3)C=C(C=C4)C(F)(F)F + O=C(c1cc(Cc2n[nH]c(=O)c3ccccc23)ccc1F)N1CCN(C(=O)C2CC2)CC1 [Olaparib] (partner 8 µM)
Outline: as §1

[4] = compound: CCC1=CN=CN=C1N2CCN(CC2)CC3=NC4=C(N3)C=C(C=C4)C(F)(F)F + CCNC(=O)c1noc(-c2cc(C(C)C)c(O)cc2O)c1-c1ccc(CN2CCOCC2)cc1 [Luminespib] (partner 0.01 µM)
Outline: as §1

## UMC-11
[1]; first compound 0.04 µM
  relative viability: 0.331
[1]; first compound 0.1265 µM
  relative viability: 0.315
[1]; first compound 0.4 µM
  relative viability: 0.306
[1]; first compound 1.265 µM
  relative viability: 0.221
[1]; first compound 4 µM
  relative viability: 0.257
[2]; first compound 0.04 µM
  relative viability: 0.427
[2]; first compound 0.1265 µM
  relative viability: 0.478
[2]; first compound 0.4 µM
  relative viability: 0.437
[2]; first compound 1.265 µM
  relative viability: 0.152
[2]; first compound 4 µM
  relative viability: 0.158
[3]; first compound 0.04 µM
  relative viability: 0.393
[3]; first compound 0.1265 µM
  relative viability: 0.392
[3]; first compound 0.4 µM
  relative viability: 0.359
[3]; first compound 1.265 µM
  relative viability: 0.32
[3]; first compound 4 µM
  relative viability: 0.332
[4]; first compound 0.04 µM
  relative viability: 0.974
[4]; first compound 0.1265 µM
  relative viability: 1.05
[4]; first compound 0.4 µM
  relative viability: 0.917
[4]; first compound 1.265 µM
  relative viability: 0.902
[4]; first compound 4 µM
  relative viability: 0.746
